From patent US6737383B1, “Herbicidal oxadiazolidines” (priority 1999, dated 2004)

Assays:
morningglory = test: Test B pre/postemergence morningglory; format: in vivo, Ipomoea hederacea
Procedure, shortened: (§1)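 Response is a visual 0-to-10 score relative to untreated plants, where 0 means no effect and 10 means complete control, taken twelve to sixteen days after application. Treatments went onto soil at planting and onto foliage of 1- to 4-leaf plants, using a surfactant-containing non-phytotoxic solvent.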

rice = test: Test B flood test rice; format: in vivo, Oryza sativa
Procedure, shortened: (§2)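 Flood test on plants grown to the 2-leaf stage; treated plants kept in greenhouse twelve to sixteen days, then visually rated against controls on a 0 (no effect) to 10 (complete control) scale.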

smallflower flatsedge = test: Test B flood test smallflower flatsedge; format: in vivo, Cyperus difformis
Procedure, shortened: as §2

wild oat = test: Test B pre/postemergence wild oat; format: in vivo, Avena fatua
Procedure, shortened: as §1

rape = test: Test B pre/postemergence rape; format: in vivo, Brassica napus
Procedure, shortened: as §1

velvetleaf = test: Test B pre/postemergence velvetleaf; format: in vivo, Abutilon theophrasti
Procedure, shortened: as §1

sugar beet = test: Test B pre/postemergence sugar beet; format: in vivo, Beta vulgaris
Procedure, shortened: as §1

crabgrass = test: Test B pre/postemergence crabgrass; format: in vivo, Digitaria sanguinalis
Procedure, shortened: as §1

pigweed = test: Test B pre/postemergence pigweed; format: in vivo, Amaranthus retroflexus
Procedure, shortened: as §1

bamyardgrass = test: Test B flood test barnyardgrass; format: in vivo, Echinochloa crus-galli
Procedure, shortened: as §2

surinam grass = test: Test B pre/postemergence surinam grass; format: in vivo, Brachiaria decumbens
Procedure, shortened: as §1

blackgrass = test: Test B pre/postemergence blackgrass; format: in vivo, Alopecurus myosuroides
Procedure, shortened: as §1

corn = test: Test B pre/postemergence corn; format: in vivo, Zea mays
Procedure, shortened: as §1

soybean = test: Test B pre/postemergence soybean; format: in vivo, Glycine max
Procedure, shortened: as §1

duck salad = test: Test B flood test duck salad; format: in vivo, Heteranthera limosa
Procedure, shortened: as §2

giant foxtail = test: Test B pre/postemergence giant foxtail; format: in vivo, Setaria faberii
Procedure, shortened: as §1

cocklebur = test: Test B pre/postemergence cocklebur; format: in vivo, Xanthium strumarium
Procedure, shortened: as §1

wheat = test: Test B pre/postemergence wheat; format: in vivo, Triticum aestivum
Procedure, shortened: as §1

purple nutsedge = test: Test B pre/postemergence purple nutsedge; format: in vivo, Cyperus rotundus
Procedure, shortened: as §1

[1] = Postemergence, Rate 62 g/ha, scale 0 to 10, 0 is no effect, 10 is complete control
[2] = Postemergence, Rate 125 g/ha, scale of 0 to 10 where 0 is no effect and 10 is complete control
[3] = Postemergence, Rate 250 g/ha, scale of 0 to 10, 0 is no effect, 10 is complete control
[4] = Postemergence, Rate 500 g/ha, scale of 0 to 10 where 0 is no effect and 10 is complete control
[5] = Preemergence, Rate 62 g/ha, scale of 0 to 10 where 0 is no effect and 10 is complete control
[6] = Preemergence, Rate 125 g/ha, scale of 0 to 10 where 0 is no effect and 10 is complete control
[7] = Preemergence, Rate 250 g/ha, scale 0 to 10 (0 no effect, 10 complete control)
[8] = Preemergence, Rate 500 g/ha, scale of 0 to 10 where 0 is no effect and 10 is complete control
[9] = Rate 62 g/ha, flood test species, Pre-emergence, visual evaluation after twelve to sixteen days
[10] = Rate 125 g/ha, under heading Pre-emergence, flood test species, visual evaluation after twelve to sixteen days
[11] = Rate 250 g/ha, Pre-emergence (flood test species), scale 0 to 10, 0 is no effect, 10 is complete control
[12] = Rate 500 g/ha, Pre-emergence section of Table B, 0 to 10 scale (0 no effect, 10 complete control)

Compound: CC(C)N(C(=O)n1oc(=O)n(CC(=O)C2CCC2)c1=O)c1ccccc1 [Compound 641]
- Plant response rating, Morningglory (morningglory; [1]): 0
- Plant response rating, Morningglory (morningglory; [2]): 1
- Morningglory plant response rating (morningglory; [3]): 7
- Plant response rating, Morningglory (morningglory; [4]): 9
- Morningglory plant response rating (morningglory; [5]): 0
- Morningglory plant response rating (morningglory; [6]): 0
- Plant response rating, Morningglory (morningglory; [7]): 0
- Plant response rating, Morningglory (morningglory; [8]): 0
- Plant response rating, Rice (0 to 10 scale, 0 is no effect, 10 is complete control) (rice; [9]): 0
- Rice plant response rating (0 to 10 scale, 0 is no effect, 10 is complete control) (rice; [10]): 0
- Rice plant response rating (rice; [11]): 0
- Rice plant response rating (rice; [12]): 0
- Plant response rating, S. Flatsedge (0 to 10 scale, 0 is no effect, 10 is complete control) (smallflower flatsedge; [9]): 0
- S. Flatsedge plant response rating (0 to 10 scale, 0 is no effect, 10 is complete control) (smallflower flatsedge; [10]): 0
- S. Flatsedge plant response rating (smallflower flatsedge; [11]): 0
- S. Flatsedge plant response rating (smallflower flatsedge; [12]): 0
- Plant response rating, Wild oats (wild oat; [1]): 0
- Plant response rating, Wild oats (wild oat; [2]): 1
- Wild oats plant response rating (wild oat; [3]): 1
- Wild oats plant response rating (wild oat; [5]): 0
- Wild oats plant response rating (wild oat; [6]): 0
- Plant response rating, Wild oats (wild oat; [7]): 0
- Plant response rating, Wild oats (wild oat; [8]): 5
- Plant response rating, Rape (rape; [1]): 0
- Plant response rating, Rape (rape; [2]): 0
- Rape plant response rating (rape; [3]): 0
- Plant response rating, Rape (rape; [4]): 0
- Rape plant response rating (rape; [5]): 0
- Plant response rating, Rape (rape; [8]): 0
- Plant response rating, Velvetleaf (velvetleaf; [1]): 0
- Plant response rating, Velvetleaf (velvetleaf; [2]): 0
- Velvetleaf plant response rating (velvetleaf; [3]): 0
- Velvetleaf plant response rating (velvetleaf; [5]): 0
- Velvetleaf plant response rating (velvetleaf; [6]): 0
- Plant response rating, Velvetleaf (velvetleaf; [7]): 0
- Plant response rating, Velvetleaf (velvetleaf; [8]): 0
- Plant response rating, Sugarbeets (sugar beet; [1]): 0
- Plant response rating, Sugarbeets (sugar beet; [2]): 0
- Sugarbeets plant response rating (sugar beet; [3]): 0
- Sugarbeets plant response rating (sugar beet; [5]): 0
- Sugarbeets plant response rating (sugar beet; [6]): 0
- Plant response rating, Sugarbeets (sugar beet; [7]): 0
- Plant response rating, Sugarbeets (sugar beet; [8]): 0
- Plant response rating, Crabgrass (crabgrass; [1]): 0
- Plant response rating, Crabgrass (crabgrass; [2]): 0
- Crabgrass plant response rating (crabgrass; [3]): 3
- Plant response rating, Crabgrass (crabgrass; [4]): 6
- Crabgrass plant response rating (crabgrass; [5]): 0
- Crabgrass plant response rating (crabgrass; [6]): 3
- Plant response rating, Crabgrass (crabgrass; [7]): 7
- Plant response rating, Crabgrass (crabgrass; [8]): 9
- Plant response rating, Redroot pigweed (pigweed; [2]): 0
- Redroot pigweed plant response rating (pigweed; [3]): 3
- Redroot pigweed plant response rating (pigweed; [5]): 0
- Redroot pigweed plant response rating (pigweed; [6]): 0
- Plant response rating, Redroot pigweed (pigweed; [7]): 0
- Plant response rating, Redroot pigweed (pigweed; [8]): 7
- Plant response rating, Barnyardgrass (0 to 10 scale, 0 is no effect, 10 is complete control) (bamyardgrass; [9]): 0
- Barnyardgrass plant response rating (0 to 10 scale, 0 is no effect, 10 is complete control) (bamyardgrass; [10]): 0
- Barnyardgrass plant response rating (bamyardgrass; [11]): 0
- Barnyardgrass plant response rating (bamyardgrass; [12]): 0
- Plant response rating, B. signalgrass (surinam grass; [1]): 0
- Plant response rating, B. signalgrass (surinam grass; [2]): 0
- B. signalgrass plant response rating (surinam grass; [3]): 0
- Plant response rating, B. signalgrass (surinam grass; [4]): 4
- B. signalgrass plant response rating (surinam grass; [5]): 0
- B. signalgrass plant response rating (surinam grass; [6]): 0
- Plant response rating, B. signalgrass (surinam grass; [7]): 6
- Plant response rating, B. signalgrass (surinam grass; [8]): 8
- Plant response rating, Blackgrass (blackgrass; [1]): 0
- Plant response rating, Blackgrass (blackgrass; [2]): 0
- Blackgrass plant response rating (blackgrass; [3]): 2
- Plant response rating, Blackgrass (blackgrass; [4]): 6
- Blackgrass plant response rating (blackgrass; [5]): 0
- Blackgrass plant response rating (blackgrass; [6]): 0
- Plant response rating, Blackgrass (blackgrass; [7]): 2
- Plant response rating, Blackgrass (blackgrass; [8]): 8
- Plant response rating, Corn (corn; [1]): 0
- Plant response rating, Corn (corn; [2]): 0
- Corn plant response rating (corn; [3]): 0
- Plant response rating, Corn (corn; [4]): 0
- Corn plant response rating (corn; [5]): 0
- Plant response rating, Corn (corn; [7]): 0
- Plant response rating, Corn (corn; [8]): 2
- Plant response rating, Soybean (soybean; [1]): 0
- Plant response rating, Soybean (soybean; [2]): 0
- Soybean plant response rating (soybean; [3]): 1
- Soybean plant response rating (soybean; [5]): 0
- Soybean plant response rating (soybean; [6]): 0
- Plant response rating, Soybean (soybean; [7]): 0
- Plant response rating, Soybean (soybean; [8]): 0
- Plant response rating, Ducksalad (0 to 10 scale, 0 is no effect, 10 is complete control) (duck salad; [9]): 0
- Ducksalad plant response rating (0 to 10 scale, 0 is no effect, 10 is complete control) (duck salad; [10]): 0
- Ducksalad plant response rating (duck salad; [11]): 0
- Ducksalad plant response rating (duck salad; [12]): 0
- Plant response rating, Giant foxtail (giant foxtail; [1]): 0
- Plant response rating, Giant foxtail (giant foxtail; [2]): 0
- Giant foxtail plant response rating (giant foxtail; [3]): 3
- Plant response rating, Giant foxtail (giant foxtail; [4]): 6
- Giant foxtail plant response rating (giant foxtail; [5]): 5
- Giant foxtail plant response rating (giant foxtail; [6]): 9
- Plant response rating, Giant foxtail (giant foxtail; [7]): 9
- Plant response rating, Giant foxtail (giant foxtail; [8]): 9
- Plant response rating, Cocklebur (cocklebur; [1]): 0
- Plant response rating, Cocklebur (cocklebur; [2]): 0
- Cocklebur plant response rating (cocklebur; [3]): 0
- Plant response rating, Cocklebur (cocklebur; [4]): 0
- Cocklebur plant response rating (cocklebur; [5]): 0
- Cocklebur plant response rating (cocklebur; [6]): 0
- Plant response rating, Cocklebur (cocklebur; [7]): 0
- Plant response rating, Cocklebur (cocklebur; [8]): 0
- Plant response rating, Wheat (wheat; [1]): 0
- Plant response rating, Wheat (wheat; [2]): 0
- Wheat plant response rating (wheat; [3]): 0
- Wheat plant response rating (wheat; [5]): 0
- Wheat plant response rating (wheat; [6]): 0
- Plant response rating, Wheat (wheat; [7]): 0
- Plant response rating, Wheat (wheat; [8]): 0
- Plant response rating, Nutsedge (purple nutsedge; [1]): 0
- Plant response rating, Nutsedge (purple nutsedge; [2]): 0
- Nutsedge plant response rating (purple nutsedge; [3]): 4
- Nutsedge plant response rating (purple nutsedge; [5]): 0
- Nutsedge plant response rating (purple nutsedge; [6]): 0
- Plant response rating, Nutsedge (purple nutsedge; [7]): 0
- Plant response rating, Nutsedge (purple nutsedge; [8]): 3
